ChEMBL document CHEMBL1142261 (Bioorg Med Chem, 2008)
Activity calls are given as the source filed them. The rule behind the calls is not given here. Peptide text beside a SMILES is read from it. * marks the point of attachment. Isovaleryl = CC(C)CC(=O)*; Propionyl = CCC(=O)*; Bz = O=C(c1ccccc1)*

Experiments:
[1] = molecular target: Nociceptin receptor (Mus musculus) (UniProt P35377); experiment: Antagonist activity at ORL1[…] receptor in ICR mouse vas deferens assessed as inhibition of electrically-stimulated muscle contraction at 10 uM; assay type: functional, tissue-based; parameters: scale not given: the % may be the effect or the level left
Nociceptin receptor [2] = molecular target: T1, Nociceptin receptor (Homo sapiens, UniProt P41146); experiment: Displacement of [3H]nociceptin from human ORL1-Galpha fusion receptor in COS7 cells; assay type: cell-based, COS-7
Nociceptin receptor [3] = molecular target: T1, Nociceptin receptor; experiment: Activity at human ORL1-Galpha fusion receptor in COS7 cells assessed as stimulation of [35S]GTP-gamma-S binding; assay type: functional, cell-based, COS-7
[4] = molecular target: Nociceptin receptor (Mus musculus) (UniProt P35377); experiment: Antagonist activity at ORL1[…] receptor in ICR mouse vas deferens assessed as inhibition of electrically-stimulated muscle contraction; assay type: functional, tissue-based
[5] = molecular target: Nociceptin receptor (Mus musculus) (UniProt P35377); experiment: Agonist activity at ORL1[…] receptor in ICR mouse vas deferens assessed as inhibition of electrically-stimulated muscle contraction at 10 uM; assay type: functional, tissue-based; parameters: scale not given: the % may be the effect or the level left

Sequence of Nociceptin receptor (Mus musculus) (P35377 whole entry, the tested form may be a part): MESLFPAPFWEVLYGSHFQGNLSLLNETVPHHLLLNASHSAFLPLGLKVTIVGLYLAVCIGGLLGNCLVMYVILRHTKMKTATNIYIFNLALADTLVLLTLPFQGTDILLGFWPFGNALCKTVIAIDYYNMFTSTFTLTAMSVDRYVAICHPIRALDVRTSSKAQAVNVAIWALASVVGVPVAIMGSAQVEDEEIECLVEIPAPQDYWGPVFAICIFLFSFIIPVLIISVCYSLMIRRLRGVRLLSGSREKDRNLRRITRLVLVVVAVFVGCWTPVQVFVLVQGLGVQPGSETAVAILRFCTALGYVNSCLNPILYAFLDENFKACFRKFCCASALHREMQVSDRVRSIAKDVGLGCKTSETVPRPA
T1 sequence (P41146 whole entry, the tested form may be a part): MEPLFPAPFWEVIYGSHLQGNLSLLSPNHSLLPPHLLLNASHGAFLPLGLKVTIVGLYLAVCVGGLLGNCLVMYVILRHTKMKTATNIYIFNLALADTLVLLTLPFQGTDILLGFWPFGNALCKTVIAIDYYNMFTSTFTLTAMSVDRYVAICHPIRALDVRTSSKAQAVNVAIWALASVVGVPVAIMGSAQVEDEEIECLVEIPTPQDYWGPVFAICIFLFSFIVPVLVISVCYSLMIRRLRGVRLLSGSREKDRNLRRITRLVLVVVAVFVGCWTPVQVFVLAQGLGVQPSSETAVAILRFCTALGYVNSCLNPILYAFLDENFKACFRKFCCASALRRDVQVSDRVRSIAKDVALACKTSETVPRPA

Row | Structure (SMILES) | IC50 (Nociceptin receptor [2]) [nM] | EC50 (Nociceptin receptor [3]) [nM] | further results
1 | CC[C@H](C)[C@H](NC(=O)[C@H](CCCNC(=N)N)NC(=O)[C@H](Cc1ccc(O)cc1)NC(=O)[C@H](Cc1ccccc1)NC(=O)[C@H](CCCNC(=N)N)NC(=O)c1ccccc1)C(=O)N[C@@H](CCCCN)C(N)=O (Bz-RFYRIK-NH2) | – | – | Activity [1]: 90%
2 | CC[C@H](C)[C@H](NC(=O)[C@H](CCCNC(=N)N)NC(=O)[C@H](Cc1ccc(O)cc1)NC(=O)[C@H](Cc1ccc(O)cc1)NC(=O)[C@H](CCCNC(=N)N)NC(=O)C(C)C)C(=O)N[C@@H](CCCCN)C(N)=O | 2.81 | 44.5 | –
3 | CCCC(C)C(=O)N[C@@H](CCCNC(=N)N)C(=O)N[C@@H](Cc1ccc(O)cc1)C(=O)N[C@@H](Cc1ccc(O)cc1)C(=O)N[C@@H](CCCNC(=N)N)C(=O)N[C@H](C(=O)N[C@@H](CCCCN)C(N)=O)[C@@H](C)CC (stereo partly drawn) | 47.3 | 23.8 | –
4 | CCCCC(=O)N[C@@H](CCCN=C(N)N)C(=O)N[C@@H](Cc1ccc(O)cc1)C(=O)N[C@@H](Cc1ccc(O)cc1)C(=O)N[C@@H](CCCN=C(N)N)C(=O)N[C@H](C(=O)N[C@@H](CCCCN)C(N)=O)[C@@H](C)CC | 5.67 | – | –
5 | CC[C@H](C)[C@H](NC(=O)[C@H](CCCN=C(N)N)NC(=O)[C@H](Cc1ccc(O)cc1)NC(=O)[C@H](Cc1ccc(O)cc1)NC(=O)[C@H](CCCN=C(N)N)NC(=O)C12CC3CC(CC(C3)C1)C2)C(=O)N[C@@H](CCCCN)C(N)=O | 3.42 | 19.2 | –
6 | CCC(=O)N[C@@H](CCCNC(=N)N)C(=O)N[C@@H](Cc1ccc(O)cc1)C(=O)N[C@@H](Cc1ccc(O)cc1)C(=O)N[C@@H](CCCNC(=N)N)C(=O)N[C@H](C(=O)N[C@@H](CCCCN)C(N)=O)[C@@H](C)CC | 1.7 | 27.6 | –
7 | CC[C@H](C)[C@H](NC(=O)[C@H](CCCNC(=N)N)NC(=O)[C@H](Cc1ccc(O)cc1)NC(=O)[C@H](Cc1ccc(O)cc1)NC(=O)[C@H](CCCNC(=N)N)NC(=O)c1ccccc1)C(=O)N[C@@H](CCCCN)C(N)=O | 14.7 | 18.3 | –
8 | CC[C@H](C)[C@H](NC(=O)[C@H](CCCNC(=N)N)NC(=O)[C@H](Cc1ccc(O)cc1)NC(=O)[C@H](Cc1ccc(O)cc1)NC(=O)[C@H](CCCNC(=N)N)NC(=O)C(C)(C)C)C(=O)N[C@@H](CCCCN)C(N)=O | 14.9 | 97.9 | –
9 | CC[C@H](C)[C@H](NC(=O)[C@H](CCCNC(=N)N)NC(=O)[C@H](Cc1ccc(O)cc1)NC(=O)[C@H](Cc1ccc(O)cc1)NC(=O)[C@H](CCCNC(=N)N)NC(=O)CC(C)C)C(=O)N[C@@H](CCCCN)C(N)=O | 7.42 | – | –
10 | CC[C@H](C)[C@H](NC(=O)[C@H](CCCNC(=N)N)NC(=O)[C@H](Cc1ccc(O)cc1)NC(=O)[C@H](Cc1ccccc1)NC(=O)[C@@H](N)CCCNC(=N)N)C(=O)N[C@@H](CCCCN)C(N)=O | – | – | Activity [4]: inactive
11 | CCCCCC(=O)N[C@@H](CCCNC(=N)N)C(=O)N[C@@H](Cc1ccc(O)cc1)C(=O)N[C@@H](Cc1ccc(O)cc1)C(=O)N[C@@H](CCCNC(=N)N)C(=O)N[C@H](C(=O)N[C@@H](CCCCN)C(N)=O)[C@@H](C)CC | 21.7 | – | –
12 | CCCC(=O)N[C@@H](CCCNC(=N)N)C(=O)N[C@@H](Cc1ccc(O)cc1)C(=O)N[C@@H](Cc1ccc(O)cc1)C(=O)N[C@@H](CCCNC(=N)N)C(=O)N[C@H](C(=O)N[C@@H](CCCCN)C(N)=O)[C@@H](C)CC | 1.86 | 32.4 | –
13 | CC[C@H](C)[C@H](NC(=O)[C@H](CCCN=C(N)N)NC(=O)[C@H](Cc1ccc(O)cc1)NC(=O)[C@H](Cc1ccc(O)cc1)NC(=O)[C@H](CCCN=C(N)N)NC=O)C(=O)N[C@@H](CCCCN)C(N)=O | 0.66 | 23.3 | –
14 | CCC(CC)C(=O)N[C@@H](CCCN=C(N)N)C(=O)N[C@@H](Cc1ccc(O)cc1)C(=O)N[C@@H](Cc1ccc(O)cc1)C(=O)N[C@@H](CCCN=C(N)N)C(=O)N[C@H](C(=O)N[C@@H](CCCCN)C(N)=O)[C@@H](C)CC | 92.6 | – | –
15 | CC[C@H](C)[C@H](NC(=O)[C@H](CCCN=C(N)N)NC(=O)[C@H](Cc1ccc(O)cc1)NC(=O)[C@H](Cc1ccc(O)cc1)NC(=O)[C@H](CCCN=C(N)N)NC(C)=O)C(=O)N[C@@H](CCCCN)C(N)=O | – | – | Activity [5]: 40%
16 | CC[C@H](C)[C@H](NC(=O)[C@H](CCCN=C(N)N)NC(=O)[C@H](Cc1ccc(O)cc1)NC(=O)[C@H](Cc1ccc(O)cc1)NC(=O)[C@H](CCCN=C(N)N)NC(=O)C(C)(C)CC)C(=O)N[C@@H](CCCCN)C(N)=O | 45.5 | 17.7 | –
17 | CCC(C)C(=O)N[C@@H](CCCNC(=N)N)C(=O)N[C@@H](Cc1ccc(O)cc1)C(=O)N[C@@H](Cc1ccc(O)cc1)C(=O)N[C@@H](CCCNC(=N)N)C(=O)N[C@H](C(=O)N[C@@H](CCCCN)C(N)=O)[C@@H](C)CC (stereo partly drawn) | 21.3 | 52.7 | –
18 | CCC(=O)N[C@@H](CCCNC(=N)N)C(=O)N[C@@H](Cc1ccccc1)C(=O)N[C@@H](Cc1ccc(O)cc1)C(=O)N[C@@H](CCCNC(=N)N)C(=O)N[C@H](C(=O)N[C@@H](CCCCN)C(N)=O)[C@@H](C)CC (Propionyl-RFYRIK-NH2) | – | – | Activity [1]: 90%
19 | CC[C@H](C)[C@H](NC(=O)[C@H](CCCNC(=N)N)NC(=O)[C@H](Cc1ccc(O)cc1)NC(=O)[C@H](Cc1ccccc1)NC(=O)[C@H](CCCNC(=N)N)NC(=O)CC(C)C)C(=O)N[C@@H](CCCCN)C(N)=O (Isovaleryl-RFYRIK-NH2) | – | – | Activity [4]: Dose-dependent effect
20 | CC[C@H](C)[C@H](NC(=O)[C@H](CCCNC(=N)N)NC(=O)[C@H](Cc1ccc(O)cc1)NC(=O)[C@H](Cc1ccc(O)cc1)NC(=O)[C@@H](N)CCCNC(=N)N)C(=O)N[C@@H](CCCCN)C(N)=O | 218 | – | –
21 | CC(C)C[C@H](NC(=O)[C@H](CCCCN)NC(=O)[C@H](CCCNC(=N)N)NC(=O)[C@H](C)NC(=O)[C@H](CO)NC(=O)[C@H](CCCCN)NC(=O)[C@H](CCCNC(=N)N)NC(=O)[C@H](C)NC(=O)CNC(=O)[C@@H](NC(=O)[C@H](Cc1ccccc1)NC(=O)CNC(=O)CNC(=O)[C@@H](N)Cc1ccccc1)[C@@H](C)O)C(=O)N[C@@H](C)C(=O)N[C@@H](CC(N)=O)C(=O)N[C@@H](CCC(N)=O)C(=O)O | – | – | ED50 [4]: 19.3 nM
22 | CC[C@H](C)[C@H](NC(=O)[C@H](CCCN=C(N)N)NC(=O)[C@H](Cc1ccc(O)cc1)NC(=O)[C@H](Cc1ccc(O)cc1)NC(=O)[C@H](CCCN=C(N)N)NC(=O)CC(C)(C)C)C(=O)N[C@@H](CCCCN)C(N)=O | 16.9 | 46.5 | –
